In PMC6501426 (Clinical Epigenetics, 2019):

Assays:
Assay in all cases: Kinase panel (Cerep)
Type in all cases: biochemical
AurA/Aur2 kinase (h) = biological target: T1, AurA/Aur2 kinase (h) (Homo sapiens, UniProt O14965); conditions: read-out: % inhibition at 10 µM by MC3353, AurA/Aur2 kinase (h), ATP 10 μM
T1 construct: purchased Eurofins Cerep
Experimental: (§1) The test compound, reference compound or water (control) were mixed with the enzyme (for the exact amount see table below) in the appropriate buffer. Thereafter, the reaction was initiated by adding the required amount of the appropriate substrate and of ATP, and the mixture is incubated at room temperature (variable reaction time, see table below). For control basal measurements, the enzyme was omitted from the reaction mixture. Following incubation, the reaction was stopped by adding 13 mM EDTA. After 5 min, the proper antibody labelled with europium chelate was added. After 60 more min, the fluorescence transfer was measured at λex=337 nm, λem=620 nm and λem=665 nm using a microplate reader (Envision, Perkin Elmer). The enzyme activity was determined by dividing the signal measured at 665 nm by that measured at 620 nm (ratio). The results are expressed as a percent inhibition of the control enzyme activity.

CDC2/CDK1 (h) (cycB) = biological target: T2, CDC2/CDK1 (h) (cycB) (Homo sapiens, UniProt P06493); conditions: read-out: % inhibition at 10 µM by MC3353, CDC2/CDK1 (h) (cycB), ATP 10 μM
T2 construct: purchased Eurofins Cerep
Experimental: as §1

CHK2 (h) = biological target: T3, CHK2 (h) (Homo sapiens, UniProt O96017); conditions: read-out: % inhibition at 10 µM by MC3353, CHK2 (h), ATP 30 μM
T3 construct: purchased Eurofins Cerep
Experimental: as §1

EGFR kinase (h) = biological target: T4, EGFR kinase (h) (Homo sapiens, UniProt P00533); conditions: read-out: % inhibition at 10 µM by MC3353, EGFR kinase (h), ATP 10 μM
T4 construct: purchased Eurofins Cerep
Experimental: as §1

ERK2 (h) (P42mapk) = biological target: T5, ERK2 (h) (P42mapk) (Homo sapiens, UniProt P28482); conditions: read-out: % inhibition at 10 µM by MC3353, ERK2 (h) (P42mapk), ATP 10 μM
T5 construct: purchased Eurofins Cerep
Experimental: as §1

FGFR2 kinase (h) = biological target: T6, FGFR2 kinase (h) (Homo sapiens, UniProt P21802); conditions: read-out: % inhibition at 10 µM by MC3353, FGFR2 kinase (h), ATP 10 μM
T6 construct: purchased Eurofins Cerep
Experimental: as §1

FGFR3 kinase (h) = biological target: T7, FGFR3 kinase (h) (Homo sapiens, UniProt P22607); conditions: read-out: % inhibition at 10 µM by MC3353, FGFR3 kinase (h), ATP 10 μM
T7 construct: purchased Eurofins Cerep
Experimental: as §1

GSK3beta (h) = biological target: T8, GSK3beta (h) (Homo sapiens, UniProt P49841); conditions: read-out: % inhibition at 10 µM by MC3353, GSK3beta (h), ATP 10 μM
T8 construct: purchased Eurofins Cerep
Experimental: as §1

IRK (h) (InsR) = biological target: T9, IRK (h) (InsR) (Homo sapiens, UniProt P06213); conditions: read-out: % inhibition at 10 µM by MC3353, IRK (h) (InsR), ATP 30 μM
T9 construct: purchased Eurofins Cerep
Experimental: as §1

KDR kinase (h) (VEGFR2) = biological target: T10, KDR kinase (h) (VEGFR2) (Homo sapiens, UniProt P35968); conditions: read-out: % inhibition at 10 µM by MC3353, KDR kinase (h) (VEGFR2), ATP 25 μM
T10 construct: purchased Eurofins Cerep
Experimental: as §1

MARK1 (h) = biological target: T11, MARK1 (h) (Homo sapiens, UniProt Q9P0L2); conditions: read-out: % inhibition at 10 µM by MC3353, MARK1 (h), ATP 1 μM
T11 construct: purchased Eurofins Cerep
Experimental: as §1

MNK2 (h) = biological target: T12, MNK2 (h) (Homo sapiens, UniProt Q9HBH9); conditions: read-out: % inhibition at 10 µM by MC3353, MNK2 (h), ATP 100 μM
T12 construct: purchased Eurofins Cerep
Experimental: as §1

NEK2 (h) = biological target: T13, NEK2 (h) (Homo sapiens, UniProt P51955); conditions: read-out: % inhibition at 10 µM by MC3353, NEK2 (h), ATP 10 μM
T13 construct: purchased Eurofins Cerep
Experimental: as §1

PDK1 (h) = biological target: T14, PDK1 (h) (Homo sapiens, UniProt O15530); conditions: read-out: % inhibition at 10 µM by MC3353, PDK1 (h), ATP 10 μM
T14 construct: purchased Eurofins Cerep
Experimental: as §1

PKA (h) = biological target: T15, PKA (h) (Homo sapiens, UniProt P17612); conditions: read-out: % inhibition at 10 µM by MC3353, PKA (h), ATP 1 μM
T15 construct: purchased Eurofins Cerep
Experimental: as §1

PKCbeta 2 (h) = biological target: T16, PKCbeta 2 (h) (Homo sapiens, UniProt P05771); conditions: read-out: % inhibition at 10 µM by MC3353, PKCbeta 2 (h), ATP 30 μM
T16 construct: purchased Eurofins Cerep
Experimental: as §1

ROCK1 (h) = biological target: T17, ROCK1 (h) (Homo sapiens, UniProt Q13464); conditions: read-out: % inhibition at 10 µM by MC3353, ROCK1 (h), ATP 1 μM
T17 construct: purchased Eurofins Cerep
Experimental: as §1

SGK1 (h) = biological target: T18, SGK1 (h) (Homo sapiens, UniProt O00141); conditions: read-out: % inhibition at 10 µM by MC3353, SGK1 (h), ATP 10 μM
T18 construct: purchased Eurofins Cerep
Experimental: as §1

c-Met kinase (h) = biological target: T19, c-Met kinase (h) (Homo sapiens, UniProt P08581); conditions: read-out: % inhibition at 10 µM by MC3353, c-Met kinase (h), ATP 10 μM
T19 construct: purchased Eurofins Cerep
Experimental: as §1

T7 sequence (P22607 23-806): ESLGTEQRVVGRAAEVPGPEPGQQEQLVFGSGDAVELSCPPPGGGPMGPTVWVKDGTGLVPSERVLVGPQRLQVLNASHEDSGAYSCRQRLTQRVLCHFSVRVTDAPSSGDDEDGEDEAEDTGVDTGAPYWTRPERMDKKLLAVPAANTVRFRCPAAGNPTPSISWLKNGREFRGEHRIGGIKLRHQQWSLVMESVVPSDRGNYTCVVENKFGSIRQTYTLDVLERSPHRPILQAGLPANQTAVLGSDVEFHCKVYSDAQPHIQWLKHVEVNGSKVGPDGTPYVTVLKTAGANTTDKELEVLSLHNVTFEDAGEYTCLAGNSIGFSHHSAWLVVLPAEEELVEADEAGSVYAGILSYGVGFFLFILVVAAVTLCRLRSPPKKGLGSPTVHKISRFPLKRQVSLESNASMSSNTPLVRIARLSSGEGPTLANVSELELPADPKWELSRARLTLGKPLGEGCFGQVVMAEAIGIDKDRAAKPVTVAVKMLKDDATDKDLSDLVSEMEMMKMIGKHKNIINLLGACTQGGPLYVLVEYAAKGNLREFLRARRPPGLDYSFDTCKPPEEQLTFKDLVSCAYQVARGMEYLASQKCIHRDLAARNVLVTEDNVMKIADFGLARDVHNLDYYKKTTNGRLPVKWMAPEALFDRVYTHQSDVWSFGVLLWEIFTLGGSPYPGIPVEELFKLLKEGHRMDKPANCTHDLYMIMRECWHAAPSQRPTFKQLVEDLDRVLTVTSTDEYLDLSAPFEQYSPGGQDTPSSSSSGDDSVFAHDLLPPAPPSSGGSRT
T16 sequence (P05771 1-673 isoform P05771-2): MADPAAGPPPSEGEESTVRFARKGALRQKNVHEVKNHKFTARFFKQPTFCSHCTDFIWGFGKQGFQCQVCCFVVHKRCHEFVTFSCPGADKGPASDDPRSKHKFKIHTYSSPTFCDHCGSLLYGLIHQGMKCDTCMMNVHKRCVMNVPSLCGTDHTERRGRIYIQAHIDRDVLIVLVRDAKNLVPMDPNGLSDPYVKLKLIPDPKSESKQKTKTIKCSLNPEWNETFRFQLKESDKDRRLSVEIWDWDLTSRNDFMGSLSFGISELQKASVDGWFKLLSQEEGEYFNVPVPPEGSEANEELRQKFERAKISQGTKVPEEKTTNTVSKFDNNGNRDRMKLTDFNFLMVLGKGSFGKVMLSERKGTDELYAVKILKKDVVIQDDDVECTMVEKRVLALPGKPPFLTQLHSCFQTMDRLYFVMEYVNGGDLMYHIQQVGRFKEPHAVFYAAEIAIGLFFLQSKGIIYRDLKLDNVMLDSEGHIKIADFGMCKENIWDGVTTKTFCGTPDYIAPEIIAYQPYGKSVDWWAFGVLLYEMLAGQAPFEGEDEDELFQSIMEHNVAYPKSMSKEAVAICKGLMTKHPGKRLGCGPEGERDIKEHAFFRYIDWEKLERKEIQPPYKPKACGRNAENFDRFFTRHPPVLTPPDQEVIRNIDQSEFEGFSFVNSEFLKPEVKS
T11 sequence (Q9P0L2 whole entry): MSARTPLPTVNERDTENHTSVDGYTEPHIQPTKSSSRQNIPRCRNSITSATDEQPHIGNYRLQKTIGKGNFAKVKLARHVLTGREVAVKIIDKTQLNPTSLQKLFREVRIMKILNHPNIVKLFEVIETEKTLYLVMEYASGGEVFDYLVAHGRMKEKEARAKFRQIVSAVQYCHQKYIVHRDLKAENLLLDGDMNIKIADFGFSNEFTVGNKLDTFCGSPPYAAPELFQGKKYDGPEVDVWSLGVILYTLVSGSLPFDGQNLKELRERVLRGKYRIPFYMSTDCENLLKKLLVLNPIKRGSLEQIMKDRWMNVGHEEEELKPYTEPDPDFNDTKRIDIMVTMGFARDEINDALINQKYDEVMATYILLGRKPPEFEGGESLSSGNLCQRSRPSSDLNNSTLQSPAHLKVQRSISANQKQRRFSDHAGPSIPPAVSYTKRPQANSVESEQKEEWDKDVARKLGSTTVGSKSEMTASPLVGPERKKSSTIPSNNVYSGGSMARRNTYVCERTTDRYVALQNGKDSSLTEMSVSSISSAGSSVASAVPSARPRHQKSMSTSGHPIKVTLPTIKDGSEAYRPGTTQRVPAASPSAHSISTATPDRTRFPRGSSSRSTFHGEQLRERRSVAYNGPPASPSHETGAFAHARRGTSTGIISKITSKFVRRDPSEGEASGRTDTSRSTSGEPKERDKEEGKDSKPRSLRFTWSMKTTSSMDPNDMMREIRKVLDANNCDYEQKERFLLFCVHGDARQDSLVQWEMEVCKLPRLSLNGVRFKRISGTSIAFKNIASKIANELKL
T10 sequence (P35968 20-1356): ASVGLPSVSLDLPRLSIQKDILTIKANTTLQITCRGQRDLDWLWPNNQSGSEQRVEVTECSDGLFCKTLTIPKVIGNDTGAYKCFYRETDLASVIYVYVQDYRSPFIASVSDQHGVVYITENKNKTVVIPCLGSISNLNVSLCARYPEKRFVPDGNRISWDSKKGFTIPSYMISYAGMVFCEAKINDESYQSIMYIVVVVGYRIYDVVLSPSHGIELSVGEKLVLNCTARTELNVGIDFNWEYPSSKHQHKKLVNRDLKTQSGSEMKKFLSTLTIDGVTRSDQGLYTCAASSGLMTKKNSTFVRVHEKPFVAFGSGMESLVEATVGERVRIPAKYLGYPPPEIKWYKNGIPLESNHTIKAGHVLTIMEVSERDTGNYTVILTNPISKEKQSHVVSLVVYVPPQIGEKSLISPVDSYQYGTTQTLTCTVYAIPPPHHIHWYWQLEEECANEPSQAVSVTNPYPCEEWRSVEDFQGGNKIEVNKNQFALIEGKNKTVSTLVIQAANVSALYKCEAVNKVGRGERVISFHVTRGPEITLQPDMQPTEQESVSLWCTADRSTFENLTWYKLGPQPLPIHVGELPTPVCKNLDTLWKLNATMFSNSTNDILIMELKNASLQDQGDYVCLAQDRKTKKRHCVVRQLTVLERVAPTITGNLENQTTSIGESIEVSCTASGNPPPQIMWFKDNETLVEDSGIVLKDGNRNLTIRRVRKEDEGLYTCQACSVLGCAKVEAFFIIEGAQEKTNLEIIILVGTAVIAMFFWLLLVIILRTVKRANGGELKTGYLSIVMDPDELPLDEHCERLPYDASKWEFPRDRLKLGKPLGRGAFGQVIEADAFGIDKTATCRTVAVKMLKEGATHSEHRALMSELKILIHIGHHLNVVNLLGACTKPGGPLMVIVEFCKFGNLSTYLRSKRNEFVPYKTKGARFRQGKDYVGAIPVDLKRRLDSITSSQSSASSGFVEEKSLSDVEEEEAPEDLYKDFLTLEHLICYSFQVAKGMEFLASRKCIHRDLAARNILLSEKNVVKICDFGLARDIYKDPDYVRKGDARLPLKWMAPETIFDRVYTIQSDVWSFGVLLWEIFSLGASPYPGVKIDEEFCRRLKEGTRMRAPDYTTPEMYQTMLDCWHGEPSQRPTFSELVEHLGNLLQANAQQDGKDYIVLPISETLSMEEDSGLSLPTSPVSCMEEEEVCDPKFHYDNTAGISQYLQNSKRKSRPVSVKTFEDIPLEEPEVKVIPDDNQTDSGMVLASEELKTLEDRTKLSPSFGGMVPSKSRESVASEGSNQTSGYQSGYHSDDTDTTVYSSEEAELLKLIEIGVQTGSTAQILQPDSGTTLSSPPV
T17 sequence (Q13464 whole entry): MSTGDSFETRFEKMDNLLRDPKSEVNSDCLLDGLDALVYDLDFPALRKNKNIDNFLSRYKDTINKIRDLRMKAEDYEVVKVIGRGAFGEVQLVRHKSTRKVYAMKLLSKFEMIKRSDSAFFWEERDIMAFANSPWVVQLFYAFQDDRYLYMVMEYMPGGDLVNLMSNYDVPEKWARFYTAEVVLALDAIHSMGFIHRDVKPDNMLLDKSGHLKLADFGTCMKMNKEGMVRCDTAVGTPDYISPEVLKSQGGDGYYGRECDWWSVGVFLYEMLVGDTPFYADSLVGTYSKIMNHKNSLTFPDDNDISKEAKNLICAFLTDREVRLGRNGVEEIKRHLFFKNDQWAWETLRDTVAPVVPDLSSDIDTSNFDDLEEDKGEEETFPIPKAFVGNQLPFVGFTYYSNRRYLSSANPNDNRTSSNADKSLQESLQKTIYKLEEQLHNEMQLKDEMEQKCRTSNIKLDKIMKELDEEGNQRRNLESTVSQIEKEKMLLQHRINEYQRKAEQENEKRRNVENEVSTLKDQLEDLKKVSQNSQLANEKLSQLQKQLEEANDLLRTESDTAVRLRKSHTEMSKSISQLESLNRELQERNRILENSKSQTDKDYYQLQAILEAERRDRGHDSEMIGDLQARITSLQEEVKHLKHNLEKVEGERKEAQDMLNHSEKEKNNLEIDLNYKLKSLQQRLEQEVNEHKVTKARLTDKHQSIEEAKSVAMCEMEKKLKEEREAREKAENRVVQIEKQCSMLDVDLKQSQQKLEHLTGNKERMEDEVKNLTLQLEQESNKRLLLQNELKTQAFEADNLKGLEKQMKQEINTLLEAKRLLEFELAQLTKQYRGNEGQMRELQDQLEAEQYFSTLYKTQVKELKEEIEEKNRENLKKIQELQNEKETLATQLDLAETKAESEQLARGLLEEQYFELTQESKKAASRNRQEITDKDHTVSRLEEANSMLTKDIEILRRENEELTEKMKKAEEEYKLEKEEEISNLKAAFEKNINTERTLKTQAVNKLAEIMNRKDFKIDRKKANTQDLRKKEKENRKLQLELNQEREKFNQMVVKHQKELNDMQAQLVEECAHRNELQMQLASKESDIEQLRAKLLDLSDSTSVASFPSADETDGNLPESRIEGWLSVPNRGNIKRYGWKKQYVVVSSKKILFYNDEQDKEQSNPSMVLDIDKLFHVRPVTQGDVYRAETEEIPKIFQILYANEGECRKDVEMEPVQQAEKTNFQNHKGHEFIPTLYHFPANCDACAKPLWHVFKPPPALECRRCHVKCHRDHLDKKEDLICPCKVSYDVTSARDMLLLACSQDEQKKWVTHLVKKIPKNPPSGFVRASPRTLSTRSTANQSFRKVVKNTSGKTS

Q: Which results are given for `O=C(Nc1ccc(NC(=O)c2ccc(Nc3ccnc4ccccc34)cc2)cc1)OCc1ccccc1` [MC3353, Benzyl (4-(4-(quinolin-4-ylamino)benzamido)phenyl)carbamate]?
A: inhibition at 10 µM (AurA/Aur2 kinase (h)): 4%; inhibition at 10 µM (CDC2/CDK1 (h) (cycB)): -25%; inhibition at 10 µM (CHK2 (h)): -30%; inhibition at 10 µM (EGFR kinase (h)): 5%; inhibition at 10 µM (ERK2 (h) (P42mapk)): -21%; inhibition at 10 µM (FGFR2 kinase (h)): 19%; inhibition at 10 µM (FGFR3 kinase (h)): -169%; inhibition at 10 µM (GSK3beta (h)): -29%; inhibition at 10 µM (IRK (h) (InsR)): 38%; inhibition at 10 µM (KDR kinase (h) (VEGFR2)): -111%; inhibition at 10 µM (MARK1 (h)): -116%; inhibition at 10 µM (MNK2 (h)): 21%; inhibition at 10 µM (NEK2 (h)): -9%; inhibition at 10 µM (PDK1 (h)): -149%; inhibition at 10 µM (PKA (h)): 27%; inhibition at 10 µM (PKCbeta 2 (h)): 11%; inhibition at 10 µM (ROCK1 (h)): -51%; inhibition at 10 µM (SGK1 (h)): 29%; inhibition at 10 µM (c-Met kinase (h)): -116%
